In patent publication US20230096051A1, “CGRP ANTIGONISTS USEFUL AS TRACER COMPOUNDS FOR POSITRON EMISSION TOMOGRAPHY” (Eli Lilly and Company, priority 2019, published 2023):

These molecules were tested against T1, hCGRP (human calcitonin gene-related peptide) receptor (Homo sapiens, UniProt O60894+Q16602) (assay: Inhibition of cAMP production by CGRP receptor antagonists in SK-N-MC neuroblastoma cells (HTRF)). Conditions: human CGRP 0.8 nM as agonist, Kb estimated as agonist-corrected IC50, read-out: hCGRP Kb ± SD.
T1 construct: Cultured SK-N-MC neuroblastoma cells that endogenously express the hCGRP receptor (ATCC); host or cells: SK-N-MC neuroblastoma cells
T1 sequence (Q16602 23-461): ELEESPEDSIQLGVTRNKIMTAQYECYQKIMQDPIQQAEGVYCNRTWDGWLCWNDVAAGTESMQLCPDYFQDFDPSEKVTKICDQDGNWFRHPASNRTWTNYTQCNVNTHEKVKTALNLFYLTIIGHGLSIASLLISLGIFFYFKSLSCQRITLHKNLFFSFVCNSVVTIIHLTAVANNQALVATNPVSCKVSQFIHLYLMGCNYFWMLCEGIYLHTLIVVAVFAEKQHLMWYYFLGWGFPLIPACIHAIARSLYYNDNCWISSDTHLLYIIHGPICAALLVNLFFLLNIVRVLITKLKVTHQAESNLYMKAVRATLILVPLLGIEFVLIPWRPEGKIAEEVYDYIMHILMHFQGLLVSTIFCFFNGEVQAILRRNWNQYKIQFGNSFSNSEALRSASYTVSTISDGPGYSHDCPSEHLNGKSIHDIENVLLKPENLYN
T1 sequence (O60894 27-148): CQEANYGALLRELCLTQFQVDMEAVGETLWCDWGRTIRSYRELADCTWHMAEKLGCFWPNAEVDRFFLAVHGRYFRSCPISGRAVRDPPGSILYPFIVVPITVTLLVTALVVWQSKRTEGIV
Type: cell-based
Method: The hCGRP (human calcitonin gene-related peptide) receptor is functionally coupled to the Gas proteins. Stimulation by hCGRP results in an increased synthesis of intracellular cAMP and can be blocked by the addition of receptor antagonists. Receptor activity is thus a reflection of the amount of cAMP present within cells which can be detected using standard in vitro technology.
Cell Culture: Cultured SK-N-MC neuroblastoma cells that endogenously express the hCGRP receptor (ATCC) are grown in Eagle's Minimum essential medium (HYCLONE™) supplemented with 10% heat-inactivated Fetal bovine serum (FBS; GIBCO®), Non-Essential Amino Acids (GIBCO®), 1 mM sodium pyruvate, 2 mM L-glutamine, 100 U/mL of penicillin, and 10 μg/mL of streptomycin to about 70% confluency. After providing fresh medium, the cells are incubated at 37° C. overnight. On the day of the assay, cells are detached using ACCUTASE® (MP Biomedicals), resuspended in assay buffer [Hank's Balanced Salt Solution/Dulbecco's phosphate-buffered saline with […] each of CaCl2 and MgCl2 mixed 1:2, 3.3 mM 4-(2-hydroxyethyl)-1-piperazineethanesulfonic acid, 0.03% bovine serum albumin, and 0.5 mM 1-methyl-3-isobutylxanthine (as inhibitor of cAMP)], and seeded 3-5K/well into 384-well, poly-D-lysine coated white plates (BD Biosciences).
Inhibition of cAMP Production: For dose-response studies, compounds are serially diluted 1:3 in dimethyl sulfoxide and then 1:10 into assay buffer. […]
Data Analysis: The amount of intracellular cAMP is quantitated using HTRF technology (Cisbio) as per vendor instructions. […] The HTRF signal is immediately detected using an ENVISION® plate reader (Perkin-Elmer) to calculate the ratio of fluorescence at […]. […] Relative […] values are calculated from the top-bottom range of the concentration response curve using a four-parameter logistic curve fitting program (ACTIVITYBASE® v5.3.1.22 or GENEDATA SCREENER® v12.0.4), and Kb values are estimated as agonist-corrected IC50 values using the equation: […]

| SMILES | Kb [nM] |
| --- | --- |
| Cc1cc(N2CCC2)cc(OCc2ccc([C@@H](C)[C@@]3(C)C(=O)NC[C@@H]3CF)cc2)n1 [Example 1, (3R,4R)-3-[(1R)-1-[4-[[4-(azetidin-1-yl)-6-methyl-2-pyridyl]oxymethyl]phenyl]ethyl]-4-(fluoromethyl)-3-methyl-pyrrolidin-2-one] | 0.08 ± 0.01 |
| Cc1cc(N2CC(F)C2)cc(OCc2ccc([C@@H](C)[C@@]3(C)C(=O)NC[C@@H]3C)cc2)n1 [Example 2, (3R,4R)-3-[(1R)-1-[4-[[4-(3-fluoroazetidin-1-yl)-6-methyl-2-pyridyl]oxymethyl]phenyl]ethyl]-3,4-dimethyl-pyrrolidin-2-one] | 0.14 ± 0.02 |
| Cc1cc(N2CC(F)C2)cc(OCc2ccc([C@@H](C)[C@@]3(C)C(=O)NC[C@@H]3CF)cc2)n1 [Example 3, (3R,4R)-3-[(1R)-1-[4-[[4-(3-fluoroazetidin-1-yl)-6-methyl-2-pyridyl]oxymethyl]phenyl]ethyl]-4-(fluoromethyl)-3-methyl-pyrrolidin-2-one] | 0.1 ± 0.02 |
